Results taken from publication PMC8007387 (Clinical Pharmacokinetics, 2021).
Where two headings read alike, the source gives them in different places.

What was measured:
[1] = male, human, in vivo
[2] = test system: QTcF interval; details: in vivo
[3] = clinical; details: male, human, in vivo
[4] = clinical; details: both, human, in vivo
[5] = in vivo; cited from earlier work
[6] = in vivo, cited from earlier work
[7] = test system: CES-1, CatA and CYP3A; design: species or system human
[8] = Sprague-Dawley, rat, in vivo, iv, 10 mg/kg
[9] = monkey, in vivo
[10] = both, human, in vivo
[11] = human, in vivo
[12] = test system: MERS-CoV; details: rhesus monkey, in vivo; cited from earlier work
[13] = in vivo; details: rhesus monkey, iv
[14] = human, plasma; cited from earlier work
[15] = human; cited from earlier work
[16] = test system: carboxylesterase 1; details: cited from earlier work
[17] = test system: cathepsin A; details: cited from earlier work
[18] = test system: cytochrome P450 (CYP) 3A; details: cited from earlier work
[19] = test system: pregnane X receptor; details: cited from earlier work
[20] = test system: aryl hydrocarbon receptor; details: cited from earlier work
[21] = test system: CYP3A4; details: cited from earlier work
[22] = test system: OATP1B1; details: cited from earlier work
[23] = test system: OATP1B3; details: cited from earlier work
[24] = test system: MATE1; details: cited from earlier work
[25] = test system: CYP2C8; details: recombinant enzyme; cited from earlier work
[26] = test system: CYP2D6; details: recombinant enzyme; cited from earlier work
[27] = test system: CYP3A; details: recombinant enzyme; cited from earlier work
[28] = test system: OATP1B1; details: cited from earlier work; remark: listed apart in the source
[29] = test system: P-glycoprotein; details: cited from earlier work

**Q.** Which “secretory clearance as share of CLr” value [1] does the source give for `N#C[C@@]1(c2ccc3c(N)ncnn23)O[C@H](CO)[C@@H](O)[C@H]1O` [GS-441524] here?
**A.** 21 % of CLr

**Q.** And the QTcF interval prolongation [2]?
**A.** do not cause QTcF interval prolongation

**Q.** And the CL renal ([3]; estimated secretory clearance CLr,s)?
**A.** 31 mL/min

**Q.** And the Tmax ([3]; iv)?
**A.** 3 h

**Q.** And the CL renal ([3]; renal clearance CLr)?
**A.** 151 mL/min

**Q.** What about the AUC ([4]; 100 mg) of the same compound?
**A.** 2230 ng·h/mL

**Q.** And the Cmax ([4]; 100 mg)?
**A.** 145 ng/mL

**Q.** What about the Tmax ([4]; 100 mg) of the same compound?
**A.** 1.51 h

**Q.** And the half-life ([4]; 100 mg, t1/2, median (Q1, Q3))?
**A.** 27.4 h

**Q.** What about the AUC(0-t) ([4]; 200 mg) of the same compound?
**A.** 2190 ng·h/mL

**Q.** And the Cmax ([4]; 200 mg)?
**A.** 143 ng/mL

**Q.** And the Tmax ([4]; 200 mg)?
**A.** 2 h

**Q.** And the “dose recovered in urine as this analyte” value [5]?
**A.** 48.6%

**Q.** And the t1/2 ([6]; 150 mg)?
**A.** ~ 24.5 h

**Q.** What about the “dose dependence of PK” value ([6]; iv) of the same compound?
**A.** linear pharmacokinetics

**Q.** What about the accumulation in plasma [6] of the same compound?
**A.** approximately 1.9 fold

**Q.** What about the “steady state reached by day” value [6] of the same compound?
**A.** 4 days

**Q.** And the “steady state reached on day” value [6]?
**A.** 4 days

**Q.** Which extraction ratio [7] does the source give for `CCC(CC)COC(=O)[C@H](C)N[P@](=O)(OC[C@H]1O[C@@](C#N)(c2ccc3c(N)ncnn23)[C@H](O)[C@@H]1O)Oc1ccccc1` [RDV, 2-ethylbutyl N-{(S)-[2-C(4-aminopyrrolo[2,1-f][1,2,4]triazin-7-yl)-2-5-anhydro-d-altrononitril-6-O-yl]phenoxyphosphoryl}-L-alaninate] here?
**A.** 0.6–0.8

**Q.** And the “administered radioactivity excreted in feces” value [8]?
**A.** 27.8%

**Q.** What about the “administered radioactivity excreted in urine” value [8] of the same compound?
**A.** 63.0%

**Q.** And the “time within which most of the radioactivity was excreted” value [8]?
**A.** ≤ 48 h

**Q.** And the “administered radioactivity recovered in feces” value [9]?
**A.** 25.6%

**Q.** And the “administered radioactivity recovered in urine” value [9]?
**A.** 33.6%

**Q.** What about the “blood-to-plasma ratio of [14C]-radioactivity” value [1] of the same compound?
**A.** 0.68

**Q.** What about the “mean total recovery of the radioactive dose” value [1] of the same compound?
**A.** > 92%

**Q.** What about the “radioactive dose recovered in feces” value [1] of the same compound?
**A.** ~18%

**Q.** What about the “radioactive dose recovered in urine” value [1] of the same compound?
**A.** approximately 74%

**Q.** And the “median time of occurrence of maximum observed plasma concentration” value [10]?
**A.** ~ 0.7 h

**Q.** What about the “graded ALT abnormalities” value ([11]; both) of the same compound?
**A.** eight participants with Grade 1 and 1 subject with Grade 2 ALT abnormalities

**Q.** And the “infusion-site phlebitis, participants” value ([11]; both)?
**A.** 40%

**Q.** And the “serious AEs, Grade 3 or 4 AEs, deaths” value ([11]; both)?
**A.** no serious AEs, Grade 3 or 4 AEs, or deaths

**Q.** And the “graded ALT abnormalities” value [11]?
**A.** no graded alanine aminotransferase (ALT) abnormalities

**Q.** And the overall tolerability [11]?
**A.** generally well tolerated

**Q.** And the “transient Grade 1 AST abnormalities” value [11]?
**A.** four of the nine participants with graded ALT abnormalities

**Q.** And the “upper bound of two-sided 90% CI of predicted mean ΔΔQTcF” value ([2]; human)?
**A.** < 10 ms

**Q.** And the QTcF interval prolongation [2]?
**A.** do not cause QTcF interval prolongation

**Q.** And the “lung viral loads lower in each lung lobe” value [12]?
**A.** 2.5–4 logs

**Q.** What about the “lung viral loads versus vehicle-treated animals” value [12] of the same compound?
**A.** lower when all lung lobes were combined

**Q.** And the “prophylactic efficacy versus vehicle-treated animals” value [12]?
**A.** significant reduction in clinical scores, clinical signs of respiratory disease, and viral RNA levels

**Q.** And the AUC(0-t) [13]?
**A.** 1430 ng·h/mL

**Q.** What about the Cmax [13] of the same compound?
**A.** 3350 ng/mL

**Q.** And the clearance [3]?
**A.** 1170 mL/min

**Q.** And the half-life ([3]; iv, 150 mg)?
**A.** ~1 h

**Q.** What about the CL renal ([3]; renal clearance CLr) of the same compound?
**A.** 129 mL/min

**Q.** What about the AUC ([4]; 100 mg) of the same compound?
**A.** 1590 ng·h/mL

**Q.** And the Cmax ([4]; 100 mg)?
**A.** 2230 ng/mL

**Q.** What about the Tmax ([4]; 100 mg) of the same compound?
**A.** 0.68 h

**Q.** What about the clearance ([4]; 100 mg, CLss, mean (%CV)) of the same compound?
**A.** ~1080 mL/min

**Q.** What about the half-life ([4]; 100 mg, t1/2, median (Q1, Q3)) of the same compound?
**A.** 0.96 h

**Q.** And the AUC(0-t) ([4]; 200 mg)?
**A.** 2860 ng·h/mL

**Q.** And the Cmax ([4]; 200 mg)?
**A.** 4380 ng/mL

**Q.** What about the Tmax ([4]; 200 mg) of the same compound?
**A.** 0.67 h

**Q.** What about the half-life ([4]; 200 mg, t1/2, median (Q1, Q3)) of the same compound?
**A.** 0.9 h

**Q.** What about the AUC ([4]; iv) of the same compound?
**A.** 1590 ng·h/mL

**Q.** And the half-life ([4]; median t1/2)?
**A.** ~1 h

**Q.** What about the “dose recovered in urine as this analyte” value [5] of the same compound?
**A.** 10.3%

**Q.** What about the “protein binding (bound)” value [14] of the same compound?
**A.** 88–93.6%

**Q.** And the “mean whole blood/plasma concentration ratio” value [15]?
**A.** 0.76

**Q.** And the “contribution to total metabolism” value [16]?
**A.** 80%

**Q.** And the “contribution to total metabolism” value [17]?
**A.** 10%

**Q.** What about the “CYP-dependent hepatic metabolism, share of total hepatic clearance” value [18] of the same compound?
**A.** 10%

**Q.** And the “contribution to total metabolism” value [18]?
**A.** 10%

**Q.** And the accumulation [6]?
**A.** lack of accumulation

**Q.** What about the “induction of enzymes or transporters via pregnane X receptor” value [19] of the same compound?
**A.** no potential for induction

**Q.** And the “induction of enzymes or transporters via aryl hydrocarbon receptor” value [20]?
**A.** no potential for induction

**Q.** And the “inhibition of CYP3A4” value [21]?
**A.** weak inhibitor

**Q.** What about the “inhibition of OATP1B1” value [22] of the same compound?
**A.** weak inhibitor

**Q.** And the “inhibition of OATP1B3” value [23]?
**A.** weak inhibitor

**Q.** What about the “inhibition of MATE1” value [24] of the same compound?
**A.** weak inhibitor

**Q.** What about the “metabolism by CYP2C8” value [25] of the same compound?
**A.** can be metabolized

**Q.** And the “metabolism by CYP2D6” value [26]?
**A.** can be metabolized

**Q.** What about the “metabolism by CYP3A” value [27] of the same compound?
**A.** can be metabolized

**Q.** And the “substrate for OATP1B1” value [28]?
**A.** substrate

**Q.** And the “substrate for P-glycoprotein” value [29]?
**A.** substrate
